Tested on: PDE IV
Assay: PDE IV inhibiting effect (3H-cAMP hydrolysis, crude enzyme from U937 cells)
Details: read-out: IC50 (concentration for 50% inhibition) against PDE IV; crude enzyme from cytoplasmic fraction of human monocyte-like U937 cells; 0.4 μM 3H-cAMP; pH 8.0; 30° C., 15 minutes
Method: The crude enzyme was purified from a cytoplasmic fraction of human monocyte-like cell strain U937 by using a Q-Sepharose column according to the method of Nicholson et al. (Br. J. Pharmacol., 97, 889 (1989)]. The enzymatic activity was determined by performing a reaction using 0.4 μM ^3H-cAMP as the substrate in 50 mM Tris buffer (pH 8.0) containing 0.1 mg/ml BSA, 1 ml of EDTA and 5 mM MgCl2 at 30° C. for 15 minutes, and then separating the produced ^3H-5′-AMP using a cation exchange column and measuring its radioactivity according to the method of Hidaka et al. [Biochem. Med., 10, 301 (1974)]. After a test compound was added, the reaction mixture was incubated at 30° C. for 15 minutes, and then added with the substrate.

IC50: 3.41 nM
SMILES: COc1ccc(Cn2c(C)nc3c(C)nc(OCCCc4cc[n+]([O-])cc4)nc32)cc1OC1CCCC1 [dihydrate of the present invention, Dihydrate of 4-[[9-[(3-cyclopentyloxy-4-methoxy)benzyl]-6,8-dimethylpurine]-2-yl-3-oxypropyl]pyridine N-oxide]

— US6919455B2, “Purine derivative dihydrate, drugs containing the same as the active ingredient and intermediate in the production thereof” (Mitsubishi Chemical Corporation, priority 1999, dated 2005)
